This is an account of results in patent US7022701B2, “Indolylalkylamine derivatives as 5-hydroxytryptamine-6 ligands” (Wyeth, priority 2001, dated 2006).

Structures can show the parent of a compound that is named as a salt.

T1 sequence (P50406 whole entry): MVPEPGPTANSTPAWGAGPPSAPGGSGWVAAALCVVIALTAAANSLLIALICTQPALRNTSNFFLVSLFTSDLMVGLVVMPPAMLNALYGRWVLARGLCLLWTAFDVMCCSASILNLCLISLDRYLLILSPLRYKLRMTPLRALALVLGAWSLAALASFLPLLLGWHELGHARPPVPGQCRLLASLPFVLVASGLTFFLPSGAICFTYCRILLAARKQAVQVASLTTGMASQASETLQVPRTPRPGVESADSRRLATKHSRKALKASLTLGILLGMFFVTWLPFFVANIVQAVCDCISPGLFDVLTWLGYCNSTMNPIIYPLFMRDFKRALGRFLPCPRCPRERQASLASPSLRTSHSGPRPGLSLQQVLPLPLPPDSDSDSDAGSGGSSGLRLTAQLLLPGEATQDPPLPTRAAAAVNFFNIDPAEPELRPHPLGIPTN

The first assay has as its target T1, human cloned 5-HT6 receptors (Homo sapiens, UniProt P50406).
T1 construct: expressed in transfected cells; host or cells: Hela cells
As to the kind of experiment: 5-HT6 binding affinity, [3H]-LSD displacement on membranes of Hela cells expressing the receptor.
Settings: not given
As for the experimental part: The affinity of test compounds for the serotonin 5-HT6 receptor is evaluated in the following manner. Cultured Hela cells expressing human cloned 5-HT6 receptors are harvested and centrifuged at low speed (1,000×g) for 10.0 min to remove the culture media. The harvested cells are suspended in half volume of fresh physiological phosphate buffered saline solution and recentrifuged at the same speed. This operation is repeated. The collected cells are then homogenized in ten volumes of 50 mM Tris.HCl (pH 7.4) and 0.5 mM EDTA. The homogenate is centrifuged at 40,000×g for 30.0 min and the precipitate is collected. The obtained pellet is resuspended in 10 volumes of Tris.HCl buffer and recentrifuged at the same speed. The final pellet is suspended in a small volume of Tris.HCl buffer and the tissue protein content is determined in aliquots of 10–25 μl volumes. […] The volume of the suspended cell membranes is adjusted to give a tissue protein concentration of 1.0 mg/ml of suspension. The prepared membrane suspension (10 times concentrated) is aliquoted in 1.0 ml volumes and stored at −70° C. until used in subsequent binding experiments.
Binding experiments are performed in a 96 well microtiter plate format, in a total volume of 200 μl. […] The test compounds are added in 20.0 μl volume.
The bound complex caught on the filter disk is allowed to air dry and the radioactivity is measured in a Packard TopCount® equipped with six photomultiplier detectors, after the addition of 40.0 μl Microscint®-20 scintillant to each shallow well. The unifilter plate is heat-sealed and counted in a PackardTopCount® with a tritium efficiency of 31.0%.
Binding in the presence of varying concentrations of test compound is expressed as a percentage of specific binding in the absence of test compound. The results are plotted as log % bound versus log concentration of test compound.
For orientation: Ki means a measure of affinity in units of concentration, obtained from inhibition or displacement. Compound `CNCCc1cn(S(=O)(=O)c2c(Cl)nc3sccn23)c2ccccc12` [Example 3, (2-[1-(6–Chloroimidazo[2,1-b]thiazole-5-sulfonyl)-1H-indol-3-yl]ethyl}methyl amine] yielded a Ki of 19 nM.
`CN(C)CCc1cn(S(=O)(=O)c2c(Cl)nc3sccn23)c2ccccc12` [Example 4, {2-[1-(6-chloro-imidazo[2,1-b][1,3]thiazole-5-sulfonyl)-1H-indol-3-yl]ethyl}dimethylamine]: affinity was put at a Ki of 1 nM.
On to `O=S(=O)(c1c(Cl)nc2sccn12)n1cc(CCNCc2ccccc2)c2ccccc21` [Example 5, benzyl-{2-[1-(6-chloro-imidazo[2,1-b][1,3]thiazole-5-sulfonyl)-1H-indol-3-yl]ethyl}amine], for which the inhibition constant (Ki) is 4 nM.
For the compound `O=S(=O)(c1c(Cl)nc2sccn12)n1cc(CCN2CCCC2)c2ccccc21` [Example 6, 1-(6-chloro-imidazo[2,1-b][1,3]thiazole-5-sulfonyl)-3-(2-pyrrolidin-1-ylethyl)-1H-indole], the affinity, expressed as Ki, was 5 nM.
Same read-out and setting: then `CN1CCN(CCc2cn(S(=O)(=O)c3c(Cl)nc4sccn34)c3ccccc23)CC1` [Example 7, 1-(6-chloro-imidazo[2,1-b][1,3]thiazole-5-sulfonyl)-3-[2-(4-methylpiperazin-1-yl)ethyl]-1H-indole], with 7 nM; and `CN(CCc1cn(S(=O)(=O)c2c(Cl)nc3sccn23)c2ccccc12)Cc1ccccc1` [Example 9, benzyl-{2-[1-(6-chloro-imidazo[2,1-b][1,3]thiazole-5-sulfonyl)-1H-indol-3-yl]ethyl}methylamine], with 5 nM.
Same read-out and setting: the result for `O=S(=O)(c1c(Cl)nc2sccn12)n1cc(CCNCCc2ccccc2)c2ccccc21` [Example 10, {2-[1-(6-chloro-imidazo[2,1-b][1,3]thiazole-5-sulfonyl)-1H-indol-3-yl]ethyl}phenethylamine] reads 41 nM; that for `O=C(O)C1CCCN1CCc1cn(S(=O)(=O)c2c(Cl)nc3sccn23)c2ccccc12` (stereo not shown) [Example 11, 1-{2-[1-(6-chloro-imidazo[2,1-b][1,3]thiazole-5-sulfonyl)-1H-indol-3-yl]ethyl}pyrrolidine-2-carboxylic acid], 30 nM; that for `CC(N)Cc1cn(S(=O)(=O)c2c(Cl)nc3sccn23)c2ccccc12` (stereo not shown) [Example 12, 2[1-(6–Chloroimidazo[2,1-b]thiazole-5-sulfonyl)-1H-indol-3-yl]-1-methylethylamine Hydrochloride], 2 nM.
Consider `C[C@H](N)Cc1cn(S(=O)(=O)c2c(Cl)nc3sccn23)c2ccccc12` [Example 15, (S)-2-[1-(6–Chloroimidazo[2,1-b]thiazole-5-sulfonyl)-1H-indol-3-yl]-1-methylethylamine Hydrochloride], for which affinity was put at a Ki of 6 nM.
As for `C[C@@H](N)Cc1cn(S(=O)(=O)c2c(Cl)nc3sccn23)c2ccccc12` [Example 16, ®-2-[1-(6 Chloroimidazo[2,1-b]thiazole-5-sulfonyl)-1H-indol-3-yl]-1-methylethylamine Hydrochloride], the Ki worked out at 2 nM.
With `NCCc1cn(S(=O)(=O)c2c(Cl)nc3ccccn23)c2ccccc12` [Example 17, 2-[1-(2-chloro-imidazo[1,2-a]pyridine-3-sulfonyl)-1H-indol-3-yl]ethylamine], the Ki is 14 nM.
Same read-out and setting: the result for `NCCc1cn(S(=O)(=O)c2c(Cl)nc3sc(Cl)cn23)c2ccccc12` [Example 18, 2-[1-(2,6-dichloro-imidazo[2,1-b][1,3]thiazole-5-sulfonyl)-1H-indol-3-yl]ethylamine] reads 8 nM; that for `CNCCc1cn(S(=O)(=O)c2c(Cl)nc3ccccn23)c2ccccc12` [Example 20, {2-[1-(2-chloro-imidazo[1,2-a]pyridine-3-sulfonyl)-1H-indol-3-yl]ethyl}methylamine], 11 nM.
`CNCCc1cn(S(=O)(=O)c2c(Cl)nc3sc(Cl)cn23)c2ccccc12` [Example 21, {2-[1-(2,6-dichloro-imidazo[2,1-b][1,3]thiazole-5-sulfonyl)-1H-indol-3-yl]ethyl)methylamine]: the inhibitory constant (Ki) came to 12 nM.
The compound `CN(C)CCc1cn(S(=O)(=O)c2c(Cl)nc3sc(Cl)cn23)c2ccccc12` [Example 24, {2-[1-(2,6-dichloro-imidazo[2,1-b][1,3]thiazole-5-sulfonyl)-1H-indol-3-yl]ethyl}dimethylamine] showed a Ki of 10 nM.
The compound `COc1ccc2c(c1)c(CCN)cn2S(=O)(=O)c1c(Cl)nc2sccn12` [Example 30, 2-[1-(6-chloro-imidazo[2,1-b][1,3]thiazole-5-sulfonyl)-5-methoxy-1H-indol-3-yl]ethylamine] displayed a Ki of 11 nM.
On the same count and under the same terms, then `COc1ccc2c(CCN)cn(S(=O)(=O)c3c(Cl)nc4sccn34)c2c1` [Example 31, 2-[1-(6-chloro-imidazo[2,1-b][1,3]thiazole-5-sulfonyl)-6-methoxy-1H-indol-3-yl]ethylamine], with 13 nM; and `NCCc1cn(S(=O)(=O)c2c(Cl)nc3sccn23)c2ccc(Br)cc12` [Example 32, 2-[5-bromo-1-(6-chloro-imidazo[2,1-b][1,3]thiazole-5-sulfonyl)-1H-indol-3-yl]ethylamine], with 74 nM.
For `NCCc1cn(S(=O)(=O)c2c(Cl)nc3sccn23)c2ccc(OCc3ccccc3)cc12` [Example 33, 2-[5-benzyloxy-1-(6-chloro-imidazo[2,1-b][1,3]thiazole-5-sulfonyl)-1H-indol-3-yl]ethylamine], affinity was put at a Ki of 169 nM.
`Cc1ccc2c(c1)c(CCN)cn2S(=O)(=O)c1c(Cl)nc2sccn12` [Example 34, 2-[1-(6-chloro-imidazo[2,1-b][1,3]thiazole-5-sulfonyl)-5-methyl-1H-indol-3-yl]ethylamine]: the Ki came out at 31 nM.
`Cc1ccc2c(CCN)cn(S(=O)(=O)c3c(Cl)nc4sccn34)c2c1` [Example 35, 2-[1-(6-chloro-imidazo[2,1-b][1,3]thiazole-5-sulfonyl)-6-methyl-1H-indol-3-yl]ethylamine] yielded a Ki of 6 nM.
Same read-out and setting: then `Cc1cccc2c(CCN)cn(S(=O)(=O)c3c(Cl)nc4sccn34)c12` [Example 36, 2-[1-(6-chloro-imidazo[2,1-b][1,3]thiazole-5-sulfonyl)-7-methyl-1H-indol-3-yl]ethylamine], with 348 nM; and `NCCc1cn(S(=O)(=O)c2c(Cl)nc3sccn23)c2ccc(O)cc12` [Example 37, 3-(2-amino-ethyl)-1-(6-chloro-imidazo[2,1-b][1,3]thiazole-5-sulfonyl)-1H-indol-5-ol], with 4 nM; and `NCCc1cn(S(=O)(=O)c2c(Cl)nc3sccn23)c2ccc(F)cc12` [Example 38, 2-[1-(6-chloro-imidazo[2,1-b][1,3]thiazole-5-sulfonyl)-5-fluoro-1H-indol-3-yl]ethylamine], with 9 nM.
Take `NCCc1cn(S(=O)(=O)c2c(Cl)nc3sccn23)c2cc(F)ccc12` [Example 39, 2-[1-(6-chloro-imidazo[2,1-b][1,3]thiazole-5-sulfonyl)-6-fluoro-1H-indol-3-yl]ethylamine]: the Ki worked out at 5 nM.
In turn, `NCCc1cn(S(=O)(=O)c2cnc3sccn23)c2ccccc12` [Example 40, 2-{1-[(imidazo[2,1-b][1,3]thiazol-5-yl)sulfonyl]-1H-indol-3-yl}ethylamine] registered a Ki of 1.2 nM.

Still in this assay, the particulars now being: [3H]-LSD 3.0 nM, membranes of Hela cells expressing human cloned 5-HT6 receptors, 120 min at room temperature; read-out: 5-HT6 Binding Ki.
`CN(C)CCc1cn(S(=O)(=O)c2c(Cl)nc3ccccn23)c2ccccc12` [Example 23, {2-[1-(2-chloro-imidazo[1,2-a]pyridine-3-sulfonyl)-1H-indol-3-yl]ethyl}dimethyamine]: the Ki stood at 10 nM.
On to `NCCCc1cn(S(=O)(=O)c2c(Cl)nc3sccn23)c2ccc(F)cc12` [Example 45, 3-{1-[(6–Chloroimidazo[2,1-b][1,3]thiazol-5-yl)sulfonyl]-5-fluoro-1H-indol-3-yl}propan-1-amine], for which the Ki stood at 48 nM.
Consider “{2-[1-(2-chloro-benzo[d]imidazo[2,1-b][1,3]thiazole-3-sulfonyl)-1H-indol-3-yl]ethyl}dimethylamine [Example 25]”, for which the Ki amounted to 37 nM.
As to “{2-[1-(2-chloro-benzo[d]imidazo[2,1-b][1,3]thiazole-3-sulfonyl)-1H-indol-3-yl]ethyl}methylamine [Example 22]”, the Ki was found to be 51 nM.
